According to publication PMC12040169 (PLOS Biology, 2025):

experiment: in vitro; conditions: human, hela cells

For O=C(O)c1n[s+][n-]c1-c1cc([N+](=O)[O-])cc([N+](=O)[O-])c1O [CBK261584], the viability at 28.5 h, 10 µM was 97.2%.

same assay, conditions: human, hela cells, % viability

First: Nc1ccc(Oc2ccc(-n3c(=O)c4cc5c(=O)n(-c6ccc(Oc7ccc(N)cc7)cc6)c(=O)c5cc4c3=O)cc2)cc1 [CBK261489]
Second: O=C(Nc1ccc(-c2nc(-c3ccccc3)c3cc(NC(=O)c4cccs4)ccc3n2)cc1)c1cccs1 [CBK261547]
The viability at 28.5 h, 10 µM of the first is higher: 104% for the first, 86% for the second.

Compared with CC(=O)N/C(=C\c1ccccc1)C(=O)NC(C)C(=O)O (stereo not drawn) [CBK261491], O=C(O)CCCC(=O)Nc1cccc([N+](=O)[O-])c1 [CBK261530] is higher in viability at 28.5 h, 10 µM: 99.1% for the first, 101% for the second.

Going from Nc1ccc(S(=O)(=O)O)c2cccc(S(=O)(=O)O)c12 [CBK261492N] to Cc1ccc2nc(-c3ccc(N)cc3)sc2c1S(=O)(=O)O [CBK261510], the viability at 28.5 h, 10 µM falls from 99.6% to 96.3%.

First: Nc1nc(N)nc(-c2ccc(-c3nc(N)nc(N)n3)cc2)n1 [CBK261494]
Second: Cc1ccc2nc(-c3ccc(/N=C/c4cccc(O)c4O)cc3)sc2c1 [CBK261583]
The viability at 28.5 h, 10 µM of the first is lower: 90.4% for the first, 96% for the second.

Compared with O=C(O)c1cccc(N2C(=O)C3C4C=CC(C3C2=O)C2C(=O)N(c3cccc(C(=O)O)c3)C(=O)C42)c1 (stereo not drawn) [CBK261495], CCOc1ccc(NC(=O)C2C3c4ccccc4C(c4ccccc43)C2C(=O)O)cc1 (stereo not drawn) [CBK261544] is lower in viability at 28.5 h, 10 µM: 110% for the first, 102% for the second.

Going from CN1CCN(CCC(=O)N/N=C/c2ccc3c(c2)OCO3)CC1 [CBK261498] to CN1CCN(CCC(=O)N/N=C/c2ccsc2)CC1 [CBK261505], the viability at 28.5 h, 10 µM rises from 91.5% to 94.8%.

Compared with COc1cccc(/C=N/NC(=O)CCN2CCN(C)CC2)c1O [CBK261499], CN1CCN(CCC(=O)N/N=C/c2c[nH]c3ccccc23)CC1 [CBK261502] is higher in viability at 28.5 h, 10 µM: 91.3% for the first, 94.7% for the second.

Compared with CN1CCN(CCC(=O)N/N=C/c2ccccn2)CC1 [CBK261501], CN1CCN(Cc2ccccc2[N+](=O)[O-])CC1 [CBK261524] is lower in viability at 28.5 h, 10 µM: 114% for the first, 85.5% for the second.

Compared with COc1c2c(nc3ccccc13)OC(C(C)(O)CO)C2 (stereo not drawn) [CBK261506], CCc1nc2ccccc2c(NC(=O)CN2CCCCCC2)c1C [CBK261580G] is higher in viability at 28.5 h, 10 µM: 87.6% for the first, 90.3% for the second.

Compared with [O-][N+]1=C2CCc3c(no[n+]3[O-])C2(O)CC1N1CCOCC1 (stereo not drawn) [CBK261515], CCOC(=O)C1CCCCN1Cc1ccc(O)c(OC)c1 (stereo not drawn) [CBK261541] is lower in viability at 28.5 h, 10 µM: 112% for the first, 96.9% for the second.

Compared with O=C(O)CN(CC(=O)O)S(=O)(=O)c1ccc(Cl)cc1 [CBK261526], NS(=O)(=O)c1ccc(NC(=O)CCCOc2ccc(Cl)cc2Cl)cc1 [CBK261536] is higher in viability at 28.5 h, 10 µM: 92.2% for the first, 104% for the second.

First: CCN(CC)Cc1c(O)ccc2c(C#N)c(C)n(-c3ccccc3)c12 [CBK261527C]
Second: CCOC(=O)c1c(C)n(-c2ccccc2)c2ccc(O)c(CN(C)C)c12 [CBK261593C]
The viability at 28.5 h, 10 µM of the first is higher: 94.9% for the first, 91% for the second.

Compared with COc1cccc(CN(C)C2CCN(C)CC2)c1OC [CBK261532], CN1CCC(N(C)Cc2cc(Cl)ccc2[N+](=O)[O-])CC1 [CBK261576] is lower in viability at 28.5 h, 10 µM: 97.7% for the first, 91.1% for the second.

First: NS(=O)(=O)c1ccc(/N=C/c2cccc(O)c2O)cc1 [CBK261533]
Second: NS(=O)(=O)c1ccc(/N=C/c2cccc(OCc3ccccc3)c2)cc1 [CBK261594]
The viability at 28.5 h, 10 µM of the first is lower: 87.8% for the first, 92.1% for the second.

Compared with COc1cc2c(cc1OC)CN(Cc1ccccc1[N+](=O)[O-])CC2 [CBK261535], COc1cc(CN2CCc3c([nH]c4ccccc34)C2)c([N+](=O)[O-])cc1OC [CBK261588] is higher in viability at 28.5 h, 10 µM: 89.8% for the first, 90.6% for the second.

First: O=[N+]([O-])c1ccc(O)c(/C=N/c2ccc3cc4ccc(/N=C/c5cc([N+](=O)[O-])ccc5O)cc4nc3c2)c1 [CBK261557]
Second: O=C(N/N=C/c1ccc([N+](=O)[O-])cc1)c1ccc(O)cc1O [CBK261591]
The viability at 28.5 h, 10 µM of the first is lower: 57.4% for the first, 105% for the second.

First: Oc1ccc(CN2CCN(c3ncccn3)CC2)cc1 [CBK261567]
Second: COc1ccc(CN2CCN(c3ccccn3)CC2)cc1O [CBK261570]
The viability at 28.5 h, 10 µM of the first is higher: 105% for the first, 90.5% for the second.

First: O=[N+]([O-])c1ccc(Cl)cc1CN1CCN(C/C=C/c2ccccc2)CC1 [CBK261568]
Second: COc1cc(CN2CCN(C/C=C/c3ccccc3)CC2)cc(Br)c1O [CBK261582]
The viability at 28.5 h, 10 µM of the first is higher: 106% for the first, 101% for the second.

First: CCn1c2ccccc2c2cc(CN3CCN(c4ccccc4OC)CC3)ccc21 [CBK261579]
Second: NS(=O)(=O)c1ccc(/N=C/c2ccc(OCc3ccccc3)cc2)cc1 [CBK261585]
The viability at 28.5 h, 10 µM of the first is lower: 85.4% for the first, 98.3% for the second.

Compared with O=C(COc1ccc2ccccc2c1)OCC(=O)c1ccc([N+](=O)[O-])cc1 [CBK261586], O=C(Nc1ccc2nc(-c3ccc(-c4nc5ccc(NC(=O)c6cccs6)cc5[nH]4)cc3)[nH]c2c1)c1cccs1 [CBK261590] is lower in viability at 28.5 h, 10 µM: 88.2% for the first, 87.1% for the second.

With CCOc1ccc(NC(=O)C2C3C=CC(O3)C2C(=O)O)cc1 (stereo not drawn) [CBK261592] the viability at 28.5 h, 10 µM was 91.7%.
